According to patent US20130164384A1, “METHODS OF TREATING BOWEL DISEASES BY ADMINISTERING A BOWEL CLEANSER AND AN ANTIBIOTIC” (Salix Pharmaceuticals, Ltd., priority 2008, published 2013):

Test system: subjects diagnosed with dIBS
Assay: Designed study of 14-day oral rifaximin 550 mg TID for adequate relief of dIBS symptoms over four weeks
Assay type: in vivo, human
Details: oral 550 mg TID, 14-day course; 4 week study duration
Description: A study is designed to evaluate the efficacy of a 14-day course of oral rifaximin at 550 mg TID in providing adequate relief from diarrhea-associated IBS (dIBS) symptoms over four weeks. The study populations includes subjects diagnosed with dIBS according to Rome III criteria utilizing the subtype for dIBS from the Rome II criteria. Subjects have a mean abdominal pain and discomfort score <4.5, a mean bloating score of <4.5 and a mean stool score (loose and watery)<3.5 for at least 7 of the 10 days during screening. A measure of efficacy is based on subjects' answers to the Weekly Subject Global Assessment (SGA) questions over the 4 week study duration in relation to their IBS symptoms. The SGA question is asked weekly as follows: “In the past 7 days, have you had adequate relief of your IBS symptoms?” (Yes/No.) It is discovered that Subjects in the treatment group taking oral rifaximin respond “Yes” more often than Subjects who are not taking oral rifaximin. Another measure of efficacy is based on subjects' answers to the Weekly Subject Global Assessment (SGA) question over the 4 week study duration in relation to their IBS symptom of bloating. The SGA question is asked weekly as follows: “In the past 7 days, have you had adequate relief of your IBS symptom of bloating?” (Yes/No). […]

COC1/C=C/OC2(C)Oc3c(C)c(O)c4c(O)c(c5c(nc6cc(C)ccn65)c4c3C2=O)NC(=O)/C(C)=C\C=C\C(C)C(O)C(C)C(O)C(C)C(OC(C)=O)C1C [RFX, (2S,16Z,18E,20S,21S,22R,23R,24R,25S,26S,27S,28E)-5,6,21,23,25 Pentahydroxy-27-methoxy-2,4,11,16,20,22,24,26-octamethyl-2,7-(epoxypentadeca-(1,11,13)trienimino)benzofuro(4,5-e)pyrido(1,2,-a)benzimidazole-1,15(2H)-dione,25-acetate] was tested, and the “"Yes" responses to weekly SGA question on adequate relief of IBS symptom of bloating versus subjects not taking rifaximin” value was “more often” and the “"Yes" responses to weekly SGA question on adequate relief of IBS symptoms versus subjects not taking rifaximin” value was “more often”.
